{"source": "patent US20060223996A1", "about": "“IL-12 modulatory compounds” (Synta Pharmaceuticals Corp., priority 2004, published 2006)", "data": [{"tested_on": "IL-12", "test": "Human in vitro assay: inhibition of IL-12 production in IFNγ/LPS- or IFNγ/SAC-stimulated human PBMC or THP-1 cells (ELISA)", "type": "cell-based", "conditions": "read-out: IC50 Range (representative in vitro IC50 data)", "method_in_brief": "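PBMC (5×10^5 cells/well) primed with IFNγ 30 U/mL for 22 h then LPS 1 μg/mL, or IFNγ 100 U/mL then SAC 0.01%; THP-1 primed with IFNγ 100 U/mL for 22 h then SAC 0.025%, with compound in 0.25% DMSO. Supernatant IL-12 p70/p40 measured by sandwich ELISA after 18 h; IC50 derived; viability by MTS.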", "units": {"IC50": "nM"}, "values": [{"smiles": "Cc1ccc2cc(NC(=O)Nc3cc(OCCN4CCOCC4)nc(N4CCOCC4)n3)ccc2n1", "note": "[Compound 136, 1-(2-Methyl-quinolin-6-yl)-3-[2-morpholin-4-yl-6-(2-morpholin-4-yl-ethoxy)-pyrimidin-4-yl]-urea]", "IC50": "< 1000"}, {"smiles": "O=C(Nc1ccc(C(F)(F)F)cc1)c1cc(NCCN2CCOCC2)nc(N2CCOCC2)n1", "note": "[Compound 191, 2-morpholino-6-(2-morpholinoethylamino)-N-(4-(trifluoromethyl)phenyl)pyrimidine-4-carboxamide]", "IC50": "≥ 1000"}, {"smiles": "COCCN(C)c1cc(C(=O)Nc2cc(C(C)(C)C)ccc2O)nc(N2CCOCC2)n1", "note": "[Compound 225, 6-[(2-Methoxy-ethyl)-methyl-amino]-2-morpholin-4-yl-pyrimidine-4-carboxylic acid (5-tert-butyl-2-hydroxy-phenyl)-amide]", "IC50": "≥ 1000"}, {"smiles": "COCCN(C)c1cc(C(=O)Nc2cc(C(C)(C)C)on2)nc(N2CCOCC2)n1", "note": "[Compound 228, 6-[(2-Methoxy-ethyl)-methyl-amino]-2-morpholin-4-yl-pyrimidine-4-carboxylic acid (5-tert-butyl-isoxazol-3-yl)-amide]", "IC50": "≥ 1000"}, {"smiles": "Cc1cc(C(=O)Nc2ccc3[nH]c(C)c(C)c3c2)nc(N2CCOCC2)n1", "note": "[Compound 253, N-(2,3-dimethyl-1H-indol-5-yl)-6-methyl-2-morpholinopyrimidine-4-carboxamide]", "IC50": "< 1000"}, {"smiles": "COCCN(C)c1cc(C(=O)Nc2nc3cc(C)c(C)cc3s2)nc(N2CCOCC2)n1", "note": "[Compound 203, N-(5,6-dimethylbenzo[d]thiazol-2-yl)-6-((2-methoxyethyl)(methyl)amino)-2-morpholinopyrimidine-4-carboxamide]", "IC50": "≥ 1000"}, {"smiles": "NC(=O)c1cccc(NC(=O)c2cc(N3CCOCC3)nc(N3CCOCC3)n2)c1", "note": "[Compound 52, 2,6-Di-morpholin-4-yl-pyrimidine-4-carboxylic acid (3-carbamoyl-phenyl)-amide]", "IC50": "≥ 1000"}, {"smiles": "Cc1[nH]c2ccc(NC(=O)Nc3cc(OCCN4CCOCC4)nc(N4CCOCC4)n3)cc2c1C", "note": "[Compound 323, 1-(2,3-Dimethyl-1H-indol-5-yl)-3-[2-morpholin-4-yl-6-(2-morpholin-4-yl-ethoxy)-pyrimidin-4-yl]-urea]", "IC50": "< 1000"}, {"smiles": "Nc1cccc(NC(=O)c2cc(OCCN3CCOCC3)nc(N3CCOCC3)n2)c1", "note": "[Compound 277, 2-Morpholin-4-yl-6-(2-morpholin-4-yl-ethoxy)-pyrimidine-4-carboxylic acid (3-amino-phenyl)-amide]", "IC50": "< 1000"}, {"smiles": "O=C(Nc1cccc(-n2ccnc2)c1)c1cc(OCCN2CCOCC2)nc(N2CCOCC2)n1", "note": "[Compound 305, 2-Morpholin-4-yl-6-(2-morpholin-4-yl-ethoxy)-pyrimidine-4-carboxylic acid (3-imidazol-1-yl-phenyl)-amide]", "IC50": "≥ 1000"}, {"smiles": "Cc1[nH]c2ccc(NC(=O)c3cc(N(CCO)CCO)nc(N4CCOCC4)n3)cc2c1C", "note": "[Compound 91, 6-[Bis-(2-hydroxy-ethyl)-amino]-2-morpholin-4-yl-pyrimidine-4-carboxylic acid (2,3-dimethyl-1H-indol-5-yl)-amide]", "IC50": "< 1000"}, {"smiles": "Cc1ccc(-c2csc(NC(=O)Nc3cc(OCCN4CCOCC4)nc(N4CCOCC4)n3)n2)cc1", "note": "[Compound 142, 1-[2-Morpholin-4-yl-6-(2-morpholin-4-yl-ethoxy)-pyrimidin-4-yl]-3-(4-p-tolyl-thiazol-2-yl)-urea]", "IC50": "≥ 1000"}, {"smiles": "CCN(CC)Cc1cc(NC(=O)c2cc(N(C)CCOC)nc(N3CCOCC3)n2)ccc1O", "note": "[Compound 164, 6-[(2-Methoxy-ethyl)-methyl-amino]-2-morpholin-4-yl-pyrimidine-4-carboxylic acid (3-diethylaminomethyl-4-hydroxy-phenyl)-amide]", "IC50": "≥ 1000"}, {"smiles": "Cc1[nH]c2ccc(NC(=O)c3cc(N(C)CC(=O)N4CCCCC4)nc(N4CCOCC4)n3)cc2c1C", "note": "[Compound 113, 6-[Methyl-(2-oxo-2-piperidin-1-yl-ethyl)-amino]-2-morpholin-4-yl-pyrimidine-4-carboxylic acid (2,3-dimethyl-1H-indol-5-yl)-amide]", "IC50": "< 1000"}, {"smiles": "Cc1cccc(NC(=O)c2cc(N3CCOCC3)nc(OCCc3ccccn3)n2)c1", "note": "[Compound 62, 6-Morpholin-4-yl-2-(2-pyridin-2-yl-ethoxy)-pyrimidine-4-carboxylic acid m-tolylamide]", "IC50": "≥ 1000"}, {"smiles": "CC(=O)N1CCN(c2cc(C(=O)Nc3ccc4[nH]c(C)c(C)c4c3)nc(N3CCOCC3)c2)CC1", "note": "[Compound 169, 4-(4-Acetyl-piperazin-1-yl)-6-morpholin-4-yl-pyridine-2-carboxylic acid (2,3-dimethyl-1H-indol-5-yl)-amide]", "IC50": "< 1000"}, {"smiles": "COCCNC(=O)CNc1cc(C(=O)Nc2ccc3[nH]c(C)c(C)c3c2)nc(N2CCOCC2)n1", "note": "[Compound 98, 6-{[(2-Methoxy-ethylcarbamoyl)-methyl]-amino}-2-morpholin-4-yl-pyrimidine-4-carboxylic acid (2,3-dimethyl-1H-indol-5-yl)-amide]", "IC50": "< 1000"}, {"smiles": "Cc1[nH]c2ccc(NC(=O)Nc3cc(N4CCN(c5ccccn5)CC4)nc(N4CCOCC4)n3)cc2c1C", "note": "[Compound 268, 1-(2,3-dimethyl-1H-indol-5-yl)-3-(2-morpholino-6-(4-(pyridin-2-yl)piperazin-1-yl)pyrimidin-4-yl)urea]", "IC50": "< 1000"}, {"smiles": "CCn1ccc2ccc(NC(=O)c3cc(OCCN4CCOCC4)nc(N4CCOCC4)n3)cc21", "note": "[Compound 220, N-(1-ethyl-1H-indol-6-yl)-2-morpholino-6-(2-morpholinoethoxy)pyrimidine-4-carboxamide]", "IC50": "< 1000"}, {"smiles": "CNc1cccc(NC(=O)c2cc(OCCN3CCOCC3)nc(N3CCOCC3)n2)c1", "note": "[Compound 280, 2-Morpholin-4-yl-6-(2-morpholin-4-yl-ethoxy)-pyrimidine-4-carboxylic acid (3-methylamino-phenyl)-amide]", "IC50": "< 1000"}, {"smiles": "O=C(Nc1cc(OCCN2CCOCC2)nc(N2CCOCC2)n1)Nc1nc2ccc(Cl)cc2o1", "note": "[Compound 135, 1-(6-Chloro-benzooxazol-2-yl)-3-[2-morpholin-4-yl-6-(2-morpholin-4-yl-ethoxy)-pyrimidin-4-yl]-urea]", "IC50": "< 1000"}, {"smiles": "O=C(Nc1cccc(-n2cccc2)c1)c1cc(OCCN2CCOCC2)nc(N2CCOCC2)n1", "note": "[Compound 285, 2-Morpholin-4-yl-6-(2-morpholin-4-yl-ethoxy)-pyrimidine-4-carboxylic acid (3-pyrrol-1-yl-phenyl)-amide]", "IC50": "< 1000"}, {"smiles": "CN(CCO)c1cc(C(=O)Nc2cccc(N3CCCC3)c2)nc(N2CCOCC2)n1", "note": "[Compound 310, 6-[(2-Hydroxy-ethyl)-methyl-amino]-2-morpholin-4-yl-pyrimidine-4-carboxylic acid (3-pyrrolidin-1-yl-phenyl)-amide]", "IC50": "< 1000"}, {"smiles": "O=C(Nc1nnc(N2CCOCC2)[nH]1)c1cc(OCCN2CCOCC2)nc(N2CCOCC2)n1", "note": "[Compound 293, 2-Morpholin-4-yl-6-(2-morpholin-4-yl-ethoxy)-pyrimidine-4-carboxylic acid (5-morpholin-4-yl-4H-[1,2,4]triazol-3-yl)-amide]", "IC50": "≥ 1000"}, {"smiles": "Cc1[nH]c2ccc(NC(=O)c3cc(OCC(=O)OC(C)(C)C)nc(N4CCOCC4)n3)cc2c1C", "note": "[Compound 316, [6-(2,3-Dimethyl-1H-indol-5-ylcarbamoyl)-2-morpholin-4-yl-pyrimidin-4-yloxy]-acetic acid tert-butyl ester]", "IC50": "< 1000"}, {"smiles": "Cc1cc(NC(=O)c2cc(OCCN3CCOCC3)nc(N3CCOCC3)n2)ccc1N(C)C", "note": "[Compound 288, 2-Morpholin-4-yl-6-(2-morpholin-4-yl-ethoxy)-pyrimidine-4-carboxylic acid (4-dimethylamino-3-methyl-phenyl)-amide]", "IC50": "≥ 1000"}, {"smiles": "CC(=O)N1CCN(C(=O)CNc2cc(C(=O)Nc3ccc4[nH]c(C)c(C)c4c3)nc(N3CCOCC3)n2)CC1", "note": "[Compound 102, 6-[2-(4-Acetyl-piperazin-1-yl)-2-oxo-ethylamino]-2-morpholin-4-yl-pyrimidine-4-carboxylic acid (2,3-dimethyl-1H-indol-5-yl)-amide]", "IC50": "< 1000"}, {"smiles": "Cc1[nH]c2ccc(NC(=O)c3cc(NCC(=O)NC4CCCC4)nc(N4CCOCC4)n3)cc2c1C", "note": "[Compound 110, 6-(Cyclopentylcarbamoylmethyl-amino)-2-morpholin-4-yl-pyrimidine-4-carboxylic acid (2,3-dimethyl-1H-indol-5-yl)-amide]", "IC50": "< 1000"}, {"smiles": "O=C(Nc1cc(-c2cccs2)[nH]n1)c1cc(OCCN2CCOCC2)nc(N2CCOCC2)n1", "note": "[Compound 45, 2-Morpholin-4-yl-6-(2-morpholin-4-yl-ethoxy)-pyrimidine-4-carboxylic acid (5-thiophen-2-yl-1H-pyrazol-3-yl)-amide]", "IC50": "≥ 1000"}, {"smiles": "Cc1cccc(N(C)C(=O)Nc2cc(N3CCOCC3)nc(OCCc3ccccn3)n2)c1", "note": "[Compound 69, 1-Methyl-3-[6-morpholin-4-yl-2-(2-pyridin-2-yl-ethoxy)-pyrimidin-4-yl]-1-m-tolyl-urea]", "IC50": "≥ 1000"}, {"smiles": "O=C(Nc1ccc2c(c1)OCO2)Nc1cc(N2CCOCC2)nc(OCCN2CCOCC2)n1", "note": "[Compound 123, 1-Benzo[1,3]dioxol-5-yl-3-[6-morpholin-4-yl-2-(2-morpholin-4-yl-ethoxy)-pyrimidin-4-yl]-urea]", "IC50": "≥ 1000"}, {"smiles": "Cc1cccc(NNC(=O)c2cc(N3CCOCC3)nc(OCCN3CCOCC3)n2)c1", "note": "[Compound 80, 6-Morpholin-4-yl-2-(2-morpholin-4-yl-ethoxy)-pyrimidine-4-carboxylic acid N′-m-tolyl-hydrazide]", "IC50": "< 1000"}, {"smiles": "CC1CCc2ccc(NC(=O)c3cc(OCCN4CCOCC4)nc(N4CCOCC4)n3)cc2N1", "note": "(stereo not shown) [Compound 299, 2-Morpholin-4-yl-6-(2-morpholin-4-yl-ethoxy)-pyrimidine-4-carboxylic acid (2-methyl-1,2,3,4-tetrahydro-quinolin-7-yl)-amide]", "IC50": "≥ 1000"}, {"smiles": "O=C(Nc1ccc2ccccc2c1)c1cc(OCCc2ccccn2)nc(N2CCOCC2)n1", "note": "[Compound 37, 2-Morpholin-4-yl-6-(2-pyridin-2-yl-ethoxy)-pyrimidine-4-carboxylic acid naphthalen-2-ylamide]", "IC50": "≥ 1000"}]}]}
